# Laboratory results from PubChem BioAssay (NCI).
#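 Test compounds were applied to cells in 96-well plates for 48 hours at 5 doses. TGI marks complete inhibition of growth.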
# Key:
# Test in all cases: DTP human tumour cell line panel, 48 h
# HCC-2998 colon = tested on: HCC-2998 colon
# NCI-H460 lung = tested on: NCI-H460 lung
# SK-OV-3 ovarian = tested on: SK-OV-3 ovarian
# MOLT-4 leukemia = tested on: MOLT-4 leukemia
# SN12C renal = tested on: SN12C renal
# SNB-19 CNS = tested on: SNB-19 CNS
# OVCAR-4 ovarian = tested on: OVCAR-4 ovarian
# SR leukemia = tested on: SR leukemia
# UO-31 renal = tested on: UO-31 renal
# 786-0 renal = tested on: 786-0 renal
# M14 melanoma = tested on: M14 melanoma
# M19-MEL melanoma = tested on: M19-MEL melanoma
# ACHN renal = tested on: ACHN renal
# XF 498 CNS = tested on: XF 498 CNS
# SF-295 CNS = tested on: SF-295 CNS
# OVCAR-8 ovarian = tested on: OVCAR-8 ovarian
# EKVX NSCLC = tested on: EKVX NSCLC
# MALME-3M melanoma = tested on: MALME-3M melanoma
# SF-539 CNS = tested on: SF-539 CNS
# U251 CNS = tested on: U251 CNS
# NCI-H23 lung = tested on: NCI-H23 lung
# HCT-116 colon = tested on: HCT-116 colon
# TK-10 renal = tested on: TK-10 renal
# SF-268 CNS = tested on: SF-268 CNS
# KM12 colon = tested on: KM12 colon
# RXF 393 renal = tested on: RXF 393 renal
# SNB-75 CNS = tested on: SNB-75 CNS
# OVCAR-3 ovarian = tested on: OVCAR-3 ovarian
# HCT-15 colon = tested on: HCT-15 colon
# LOX IMVI melanoma = tested on: LOX IMVI melanoma
# UACC-257 melanoma = tested on: UACC-257 melanoma
# RXF-631 renal = tested on: RXF-631 renal
# DLD-1 colon = tested on: DLD-1 colon
# KM20L2 colon = tested on: KM20L2 colon
# HT29 colon = tested on: HT29 colon
# SNB-78 CNS = tested on: SNB-78 CNS
# LXFL 529 NSCLC = tested on: LXFL 529 NSCLC
# UACC-62 melanoma = tested on: UACC-62 melanoma
# K-562 leukemia = tested on: K-562 leukemia
# HOP-62 NSCLC = tested on: HOP-62 NSCLC
# OVCAR-5 ovarian = tested on: OVCAR-5 ovarian
# RPMI-8226 leukemia = tested on: RPMI-8226 leukemia
# SK-MEL-28 melanoma = tested on: SK-MEL-28 melanoma
# A498 renal = tested on: A498 renal
# CCRF-CEM leukemia = tested on: CCRF-CEM leukemia
# NCI-H522 lung = tested on: NCI-H522 lung
# HOP-18 NSCLC = tested on: HOP-18 NSCLC
# CAKI-1 renal = tested on: CAKI-1 renal
# DMS 273 small cell lung = tested on: DMS 273 small cell lung
# DMS 114 small cell lung = tested on: DMS 114 small cell lung
# COLO 205 colon = tested on: COLO 205 colon
# IGROV1 ovarian = tested on: IGROV1 ovarian
# SK-MEL-2 melanoma = tested on: SK-MEL-2 melanoma
# NCI-H226 lung = tested on: NCI-H226 lung
# SW-620 colon = tested on: SW-620 colon
# A549 NSCLC = tested on: A549 NSCLC
# SK-MEL-5 melanoma = tested on: SK-MEL-5 melanoma
# HOP-92 NSCLC = tested on: HOP-92 NSCLC
# HL-60(TB) leukemia = tested on: HL-60(TB) leukemia
structure (smiles),measurement,setting,value
OCC(O)C(OC1OC(CO)C(O)C(O)C1O)c1nn(-c2ccccc2)c2nc3cc(Cl)c(Cl)cc3cc12 (stereo unspecified),TGI,HCC-2998 colon,> 100 µM
same,TGI,NCI-H460 lung,> 100 µM
same,TGI,SK-OV-3 ovarian,> 100 µM
same,TGI,MOLT-4 leukemia,> 100 µM
same,TGI,SN12C renal,> 100 µM
same,TGI,SNB-19 CNS,> 100 µM
same,TGI,OVCAR-4 ovarian,> 100 µM
same,TGI,SR leukemia,> 100 µM
same,TGI,UO-31 renal,> 100 µM
same,TGI,786-0 renal,> 100 µM
same,TGI,M14 melanoma,> 100 µM
same,TGI,M19-MEL melanoma,> 100 µM
same,TGI,ACHN renal,> 100 µM
same,TGI,XF 498 CNS,> 100 µM
same,TGI,SF-295 CNS,> 100 µM
same,TGI,OVCAR-8 ovarian,> 100 µM
same,TGI,EKVX NSCLC,> 100 µM
same,TGI,MALME-3M melanoma,> 100 µM
same,TGI,SF-539 CNS,> 100 µM
same,TGI,U251 CNS,> 100 µM
same,TGI,NCI-H23 lung,> 100 µM
same,TGI,HCT-116 colon,> 100 µM
same,TGI,TK-10 renal,> 100 µM
same,TGI,SF-268 CNS,> 100 µM
same,TGI,KM12 colon,> 100 µM
same,TGI,RXF 393 renal,> 100 µM
same,TGI,SNB-75 CNS,> 100 µM
same,TGI,OVCAR-3 ovarian,> 100 µM
same,TGI,HCT-15 colon,> 100 µM
same,TGI,LOX IMVI melanoma,> 100 µM
same,TGI,UACC-257 melanoma,> 100 µM
same,TGI,RXF-631 renal,> 100 µM
same,TGI,DLD-1 colon,> 100 µM
same,TGI,KM20L2 colon,> 100 µM
same,TGI,HT29 colon,> 100 µM
same,TGI,SNB-78 CNS,> 100 µM
same,TGI,LXFL 529 NSCLC,> 100 µM
same,TGI,UACC-62 melanoma,> 100 µM
same,TGI,K-562 leukemia,> 100 µM
same,TGI,HOP-62 NSCLC,> 100 µM
same,TGI,OVCAR-5 ovarian,> 100 µM
same,TGI,RPMI-8226 leukemia,> 100 µM
same,TGI,SK-MEL-28 melanoma,> 100 µM
same,TGI,A498 renal,> 100 µM
same,TGI,CCRF-CEM leukemia,> 100 µM
same,TGI,NCI-H522 lung,> 100 µM
O=C(c1ccccc1)[C@H]1Nc2ccc(Cl)cc2[C@H]2OCCC[C@@H]12,TGI,HCC-2998 colon,45.8 µM
same,TGI,NCI-H460 lung,34.5 µM
same,TGI,MOLT-4 leukemia,61.7 µM
same,TGI,SN12C renal,37.5 µM
same,TGI,SNB-19 CNS,90.3 µM
same,TGI,OVCAR-4 ovarian,45 µM
same,TGI,HOP-18 NSCLC,55.7 µM
same,TGI,SR leukemia,79.2 µM
same,TGI,UO-31 renal,33 µM
same,TGI,M14 melanoma,31.9 µM
same,TGI,M19-MEL melanoma,49.1 µM
same,TGI,ACHN renal,93.5 µM
same,TGI,XF 498 CNS,33.6 µM
same,TGI,SF-295 CNS,32.8 µM
same,TGI,CAKI-1 renal,63 µM
same,TGI,OVCAR-8 ovarian,41.9 µM
same,TGI,EKVX NSCLC,50.4 µM
same,TGI,MALME-3M melanoma,48.1 µM
same,TGI,DMS 273 small cell lung,39 µM
same,TGI,U251 CNS,31.7 µM
same,TGI,DMS 114 small cell lung,37.1 µM
same,TGI,NCI-H23 lung,52 µM
same,TGI,COLO 205 colon,45.7 µM
same,TGI,IGROV1 ovarian,> 100 µM
same,TGI,HCT-116 colon,31.5 µM
same,TGI,TK-10 renal,64.6 µM
same,TGI,SF-268 CNS,39.5 µM
same,TGI,KM12 colon,34.1 µM
same,TGI,RXF 393 renal,32.4 µM
same,TGI,SK-MEL-2 melanoma,43.9 µM
same,TGI,OVCAR-3 ovarian,30.7 µM
same,TGI,HCT-15 colon,43.8 µM
same,TGI,LOX IMVI melanoma,31.2 µM
same,TGI,RXF-631 renal,34.5 µM
same,TGI,KM20L2 colon,39.4 µM
same,TGI,HT29 colon,35.3 µM
same,TGI,SNB-78 CNS,72.1 µM
same,TGI,LXFL 529 NSCLC,33.5 µM
same,TGI,UACC-62 melanoma,33.5 µM
same,TGI,K-562 leukemia,51.4 µM
same,TGI,HOP-62 NSCLC,32.6 µM
same,TGI,OVCAR-5 ovarian,35.3 µM
same,TGI,NCI-H226 lung,47.7 µM
same,TGI,RPMI-8226 leukemia,57.7 µM
same,TGI,SK-MEL-28 melanoma,32.2 µM
same,TGI,NCI-H522 lung,36.8 µM
same,TGI,SW-620 colon,39.1 µM
COc1ccc(C(Cc2cc(OC)c(OC)c(OC)c2)C(=O)O)cc1 (stereo unspecified),TGI,HCC-2998 colon,> 100 µM
same,TGI,NCI-H460 lung,> 100 µM
same,TGI,SK-OV-3 ovarian,> 100 µM
same,TGI,SN12C renal,> 100 µM
same,TGI,SNB-19 CNS,> 100 µM
same,TGI,OVCAR-4 ovarian,> 100 µM
same,TGI,HOP-18 NSCLC,> 100 µM
same,TGI,UO-31 renal,> 100 µM
same,TGI,786-0 renal,> 100 µM
same,TGI,M14 melanoma,> 100 µM
same,TGI,M19-MEL melanoma,> 100 µM
same,TGI,ACHN renal,> 100 µM
same,TGI,XF 498 CNS,> 100 µM
same,TGI,SF-295 CNS,84.8 µM
same,TGI,CAKI-1 renal,> 100 µM
same,TGI,OVCAR-8 ovarian,> 100 µM
same,TGI,EKVX NSCLC,> 100 µM
same,TGI,MALME-3M melanoma,> 100 µM
same,TGI,SF-539 CNS,> 100 µM
same,TGI,DMS 273 small cell lung,> 100 µM
same,TGI,U251 CNS,> 100 µM
same,TGI,DMS 114 small cell lung,> 100 µM
same,TGI,NCI-H23 lung,> 100 µM
same,TGI,COLO 205 colon,> 100 µM
same,TGI,IGROV1 ovarian,> 100 µM
same,TGI,HCT-116 colon,> 100 µM
same,TGI,TK-10 renal,> 100 µM
same,TGI,SF-268 CNS,> 100 µM
same,TGI,KM12 colon,> 100 µM
same,TGI,SNB-75 CNS,65.2 µM
same,TGI,SK-MEL-2 melanoma,> 100 µM
same,TGI,OVCAR-3 ovarian,84.7 µM
same,TGI,HCT-15 colon,> 100 µM
same,TGI,A549 NSCLC,> 100 µM
same,TGI,LOX IMVI melanoma,> 100 µM
same,TGI,UACC-257 melanoma,> 100 µM
same,TGI,RXF-631 renal,> 100 µM
same,TGI,DLD-1 colon,> 100 µM
same,TGI,KM20L2 colon,> 100 µM
same,TGI,SK-MEL-5 melanoma,> 100 µM
same,TGI,HT29 colon,> 100 µM
same,TGI,SNB-78 CNS,> 100 µM
same,TGI,UACC-62 melanoma,> 100 µM
same,TGI,K-562 leukemia,> 100 µM
same,TGI,HOP-62 NSCLC,> 100 µM
same,TGI,OVCAR-5 ovarian,> 100 µM
same,TGI,NCI-H226 lung,> 100 µM
same,TGI,RPMI-8226 leukemia,> 100 µM
same,TGI,SK-MEL-28 melanoma,> 100 µM
same,TGI,A498 renal,> 100 µM
same,TGI,CCRF-CEM leukemia,> 100 µM
same,TGI,SW-620 colon,> 100 µM
O=c1c2cccc3cccc(c4oc5c6cccc7cccc(c(=O)c5c14)c76)c32,TGI,HCC-2998 colon,> 31.6 µM
same,TGI,NCI-H460 lung,18.1 µM
same,TGI,SK-OV-3 ovarian,> 31.6 µM
same,TGI,MOLT-4 leukemia,21.5 µM
same,TGI,SN12C renal,18.2 µM
same,TGI,SNB-19 CNS,18.6 µM
same,TGI,HOP-18 NSCLC,24.8 µM
same,TGI,SR leukemia,29.9 µM
same,TGI,UO-31 renal,23.1 µM
same,TGI,786-0 renal,15.8 µM
same,TGI,M14 melanoma,17.7 µM
same,TGI,M19-MEL melanoma,16.9 µM
same,TGI,ACHN renal,16.3 µM
same,TGI,SF-295 CNS,> 31.6 µM
same,TGI,CAKI-1 renal,45.9 µM
same,TGI,OVCAR-8 ovarian,16.1 µM
same,TGI,EKVX NSCLC,23.3 µM
same,TGI,MALME-3M melanoma,17.9 µM
same,TGI,SF-539 CNS,31.5 µM
same,TGI,DMS 273 small cell lung,17.9 µM
same,TGI,U251 CNS,17.4 µM
same,TGI,DMS 114 small cell lung,18.5 µM
same,TGI,NCI-H23 lung,20.1 µM
same,TGI,COLO 205 colon,15.6 µM
same,TGI,IGROV1 ovarian,28.7 µM
same,TGI,HOP-92 NSCLC,15.2 µM
same,TGI,HCT-116 colon,17 µM
same,TGI,TK-10 renal,17.5 µM
same,TGI,SF-268 CNS,19.6 µM
same,TGI,KM12 colon,21.2 µM
same,TGI,RXF 393 renal,16.6 µM
same,TGI,SNB-75 CNS,21.7 µM
same,TGI,SK-MEL-2 melanoma,23.3 µM
same,TGI,OVCAR-3 ovarian,17 µM
same,TGI,HCT-15 colon,16.9 µM
same,TGI,A549 NSCLC,25.4 µM
same,TGI,LOX IMVI melanoma,17.2 µM
same,TGI,UACC-257 melanoma,30 µM
same,TGI,RXF-631 renal,19.3 µM
same,TGI,DLD-1 colon,30.2 µM
same,TGI,KM20L2 colon,26.2 µM
same,TGI,SK-MEL-5 melanoma,22.2 µM
same,TGI,HT29 colon,19.6 µM
same,TGI,SNB-78 CNS,21.2 µM
same,TGI,LXFL 529 NSCLC,15.8 µM
same,TGI,UACC-62 melanoma,17.6 µM
same,TGI,HOP-62 NSCLC,> 100 µM
same,TGI,HL-60(TB) leukemia,20.7 µM
same,TGI,OVCAR-5 ovarian,> 31.6 µM
same,TGI,NCI-H226 lung,> 31.6 µM
same,TGI,RPMI-8226 leukemia,24.1 µM
same,TGI,SK-MEL-28 melanoma,17.7 µM
same,TGI,A498 renal,> 100 µM
same,TGI,CCRF-CEM leukemia,22.1 µM
same,TGI,NCI-H522 lung,10.1 µM
same,TGI,SW-620 colon,17 µM
